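A five-concentration, 48-hour dose response in 96-well plates underlies each endpoint, interpolated linearly between surrounding concentrations. At the GI50, growth is halved.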 Activity calls are given as the source filed them. No stated cut-off is given here; in the data, active = GI50 up to about 1.1 µM and inactive = higher.
What was measured:
Test in all cases: NCI anticancer screen, dose series, 48 h
NCI-H226 = tested on: NCI-H226
SN12C = tested on: SN12C
OVCAR-3 = tested on: OVCAR-3
RXF 393 = tested on: RXF 393
HOP-18 = tested on: HOP-18
DLD-1 = tested on: DLD-1
SK-MEL-28 = tested on: SK-MEL-28
KM12 = tested on: KM12
T47D = tested on: T47D
CCRF-CEM = tested on: CCRF-CEM
786-0 = tested on: 786-0
SK-MEL-5 = tested on: SK-MEL-5
SF-295 = tested on: SF-295
EKVX = tested on: EKVX
IGROV-1 = tested on: IGROV-1
HCC 2998 = tested on: HCC 2998
OVCAR-5 = tested on: OVCAR-5
A549 = tested on: A549
SNB-75 = tested on: SNB-75
SF-268 = tested on: SF-268
SR = tested on: SR
HOP-62 = tested on: HOP-62
K562 = tested on: K562
HCT-15 = tested on: HCT-15
LOX IMVI = tested on: LOX IMVI
MDA-MB-231 = tested on: MDA-MB-231
OVCAR-8 = tested on: OVCAR-8
U-251 = tested on: U-251
A498 = tested on: A498
HL-60 = tested on: HL-60
Malme-3M = tested on: Malme-3M
DMS-273 = tested on: DMS-273
NCI/ADR-RES = tested on: NCI/ADR-RES
COLO 205 = tested on: COLO 205
DU-145 = tested on: DU-145
HCT-116 = tested on: HCT-116
MOLT-4 = tested on: MOLT-4
PC-3 = tested on: PC-3
Hs-578T = tested on: Hs-578T
TK-10 = tested on: TK-10
NCI-H460 = tested on: NCI-H460
LXFL 529 = tested on: LXFL 529
MDA-N = tested on: MDA-N
OVCAR-4 = tested on: OVCAR-4
CAKI-1 = tested on: CAKI-1
M19-MEL = tested on: M19-MEL
RPMI-8226 = tested on: RPMI-8226
SNB-19 = tested on: SNB-19
HT-29 = tested on: HT-29
MCF7 = tested on: MCF7
MDA-MB-435 = tested on: MDA-MB-435
NCI-H522 = tested on: NCI-H522
SNB-78 = tested on: SNB-78
ACHN = tested on: ACHN
NCI-H23 = tested on: NCI-H23
DMS-114 = tested on: DMS-114
SF-539 = tested on: SF-539
M14 = tested on: M14
SK-MEL-2 = tested on: SK-MEL-2
SW-620 = tested on: SW-620
UACC-257 = tested on: UACC-257
UO-31 = tested on: UO-31
UACC-62 = tested on: UACC-62
BT-549 = tested on: BT-549
KM-20L2 = tested on: KM-20L2
XF498 = tested on: XF498
HOP-92 = tested on: HOP-92
SK-OV-3 = tested on: SK-OV-3

Cc1cc2c(Br)cc(Br)c(O)c2nc1C(=O)c1ccccc1
GI50 (NCI-H226): > 51.1 µM (inactive)
GI50 (SN12C): 20.2 µM (inactive)
GI50 (OVCAR-3): 20.3 µM (inactive)
GI50 (RXF 393): > 47.5 µM (inactive)
GI50 (HOP-18): 18.5 µM (inactive)
GI50 (DLD-1): 36.6 µM (inactive)
GI50 (SK-MEL-28): > 62.7 µM (inactive)
GI50 (KM12): 22.3 µM (inactive)
GI50 (T47D): 8.17 µM (inactive)
GI50 (CCRF-CEM): 8.11 µM (inactive)
GI50 (786-0): 10.2 µM (inactive)
GI50 (SK-MEL-5): 14.5 µM (inactive)
GI50 (SF-295): 10.6 µM (inactive)
GI50 (EKVX): > 51.6 µM (inactive)
GI50 (IGROV-1): 21 µM (inactive)
GI50 (HCC 2998): 18.7 µM (inactive)
GI50 (OVCAR-5): > 45.1 µM (inactive)
GI50 (A549): 14.4 µM (inactive)
GI50 (SNB-75): > 74.1 µM (inactive)
GI50 (SF-268): 28.3 µM (inactive)
GI50 (SR): 14.9 µM (inactive)
GI50 (HOP-62): 14 µM (inactive)
GI50 (K562): 10.4 µM (inactive)
GI50 (HCT-15): 14 µM
GI50 (LOX IMVI): 10.4 µM (inactive)
GI50 (MDA-MB-231): 20 µM (inactive)
GI50 (OVCAR-8): 35 µM (inactive)
GI50 (U-251): 14.4 µM (inactive)
GI50 (A498): 20.7 µM (inactive)
GI50 (HL-60): 4.4 µM (inactive)
GI50 (Malme-3M): 33.2 µM (inactive)
GI50 (DMS-273): 19 µM (inactive)
GI50 (NCI/ADR-RES): 4.01 µM (inactive)
GI50 (COLO 205): 21.4 µM (inactive)
GI50 (DU-145): 17 µM (inactive)
GI50 (HCT-116): 12.4 µM (inactive)
GI50 (MOLT-4): 24.3 µM (inactive)
GI50 (PC-3): 13.4 µM (inactive)
GI50 (Hs-578T): > 100 µM (inactive)
GI50 (TK-10): 28.4 µM (inactive)
GI50 (NCI-H460): 10.6 µM (inactive)
GI50 (LXFL 529): 21.1 µM (inactive)
GI50 (MDA-N): 16.2 µM (inactive)
GI50 (OVCAR-4): 29.3 µM (inactive)
GI50 (CAKI-1): 55.8 µM (inactive)
GI50 (M19-MEL): 17.7 µM (inactive)
GI50 (RPMI-8226): 22.4 µM (inactive)
GI50 (SNB-19): 24.9 µM (inactive)
GI50 (HT-29): 28.4 µM (inactive)
GI50 (MCF7): 10.1 µM (inactive)
GI50 (MDA-MB-435): 43.1 µM (inactive)
GI50 (NCI-H522): 13.5 µM (inactive)
GI50 (SNB-78): 50.1 µM (inactive)
GI50 (ACHN): 20.8 µM (inactive)
GI50 (NCI-H23): 13.1 µM (inactive)
GI50 (DMS-114): 31.6 µM (inactive)
GI50 (SF-539): 19.1 µM (inactive)
GI50 (M14): > 43.3 µM (inactive)
GI50 (SK-MEL-2): > 61.1 µM (inactive)
GI50 (SW-620): 55.8 µM (inactive)
GI50 (UACC-257): 24.5 µM (inactive)
GI50 (UO-31): 12.2 µM (inactive)
GI50 (UACC-62): 9.59 µM (inactive)
GI50 (BT-549): > 100 µM (inactive)
GI50 (KM-20L2): 28.4 µM (inactive)

CCCCCCCCCCCCCB(O)O
GI50 (OVCAR-3): > 100 µM (inactive)
GI50 (CCRF-CEM): > 100 µM (inactive)
GI50 (OVCAR-5): > 100 µM (inactive)
GI50 (U-251): > 100 µM (inactive)
GI50 (XF498): > 100 µM (inactive)
GI50 (DMS-273): > 100 µM (inactive)
GI50 (SNB-19): > 100 µM (inactive)
GI50 (NCI-H23): > 100 µM (inactive)
GI50 (DMS-114): > 100 µM (inactive)
GI50 (M14): > 100 µM (inactive)
GI50 (SK-MEL-2): > 100 µM (inactive)
GI50 (SW-620): > 100 µM (inactive)

COc1ccc(C=O)cc1O[Si](C)(C)C(C)(C)C
GI50 (SN12C): > 100 µM (inactive)
GI50 (OVCAR-3): > 100 µM (inactive)
GI50 (HOP-92): 25.7 µM (inactive)
GI50 (RXF 393): > 100 µM (inactive)
GI50 (HOP-18): 33.7 µM (inactive)
GI50 (DLD-1): > 100 µM (inactive)
GI50 (KM12): > 100 µM (inactive)
GI50 (CCRF-CEM): > 100 µM (inactive)
GI50 (786-0): > 100 µM (inactive)
GI50 (SK-MEL-5): > 100 µM (inactive)
GI50 (SF-295): > 100 µM (inactive)
GI50 (EKVX): > 100 µM (inactive)
GI50 (IGROV-1): > 100 µM (inactive)
GI50 (HCC 2998): > 100 µM (inactive)
GI50 (OVCAR-5): > 100 µM (inactive)
GI50 (A549): > 100 µM (inactive)
GI50 (SNB-75): 61.5 µM (inactive)
GI50 (SF-268): > 100 µM (inactive)
GI50 (HOP-62): > 100 µM (inactive)
GI50 (K562): > 100 µM (inactive)
GI50 (HCT-15): > 100 µM
GI50 (LOX IMVI): > 100 µM (inactive)
GI50 (OVCAR-8): > 100 µM (inactive)
GI50 (U-251): > 100 µM (inactive)
GI50 (A498): > 100 µM (inactive)
GI50 (HL-60): > 100 µM (inactive)
GI50 (Malme-3M): > 100 µM (inactive)
GI50 (DMS-273): > 100 µM (inactive)
GI50 (COLO 205): > 100 µM (inactive)
GI50 (HCT-116): > 100 µM (inactive)
GI50 (MOLT-4): > 100 µM (inactive)
GI50 (TK-10): > 100 µM (inactive)
GI50 (NCI-H460): > 100 µM (inactive)
GI50 (LXFL 529): > 100 µM (inactive)
GI50 (OVCAR-4): > 100 µM (inactive)
GI50 (CAKI-1): > 100 µM (inactive)
GI50 (M19-MEL): > 100 µM (inactive)
GI50 (RPMI-8226): > 100 µM (inactive)
GI50 (SNB-19): > 100 µM (inactive)
GI50 (HT-29): > 100 µM (inactive)
GI50 (SNB-78): > 100 µM (inactive)
GI50 (ACHN): > 100 µM (inactive)
GI50 (NCI-H23): > 100 µM (inactive)
GI50 (DMS-114): > 100 µM (inactive)
GI50 (SF-539): > 100 µM (inactive)
GI50 (SK-OV-3): > 100 µM (inactive)
GI50 (M14): > 100 µM (inactive)
GI50 (SK-MEL-2): > 100 µM (inactive)
GI50 (SW-620): > 100 µM (inactive)
GI50 (UACC-257): > 100 µM (inactive)
GI50 (UO-31): > 100 µM (inactive)
GI50 (UACC-62): > 100 µM (inactive)
GI50 (KM-20L2): > 100 µM (inactive)
